US9179694B2, “Method and composition for enhancing milk production and milk component concentrations” (PURINA ANIMAL NUTRITION LLC, priority 2003, dated 2015)

Assay: Dry matter feed intake in sorbitol feeding trials
Format: in vivo, Holstein cows
Description: To determine the dry matter weight (or dry matter basis or dry basis) of a particular sample, the sample is first weighed. The weighed sample is then dried in an oven at a temperature that is adequate to drive off moisture from the sample without degrading the sample components, such as a temperature ranging from about 100° C. to about 110° C. The oven drying is continued until the weight of the dried sample remains constant, despite additional oven drying. During the pre-partum period, for all cows utilized in Example One or Example Two, the pre-partum control feed, as modified to include any sorbitol indicated above for the different trials, was placed in the feeding troughs of the different cows participating in the different trials once daily in the morning. Thereafter, these different pre-partum feeds (the pre-partum control feed, including any incorporated sorbitol dosage of a particular trial during the pre-partum period) of the different trials were lightly stirred, separately and individually, in front of the cows of the different trials three times per day during the pre-partum period to encourage additional feed ingestion by the cows. Leftover rations from the previous day's feeding were collected and weighed from each feeding trough during the pre-partum period, prior to feeding the test cows on a subsequent day. The cows of the different trials received a sufficient amount of the pre-partum to ensure at least about ten weight percent of the pre-partum feeds of the different trials remained in the feeding troughs of each trial each day of the pre-partum period, based on the amount of the different pre-partum feeds of the different trials provided at the beginning of each day. Feed refusals were measured daily during the pre-partum period, and water was supplied ad libitum. During the early post-partum period, for all cows utilized in Example One or Example Two, the first post-partum control feed, as modified to include any sorbitol indicated above for the different trials, was placed in the feeding troughs of the different cows participating in the different trials once daily in the morning. Thereafter, these first post-partum feeds (the first post-partum control feed, including any incorporated sorbitol dosage of a particular trial during the early post-partum period) of the different trials were lightly stirred, separately and individually, in front of the cows of the different trials three times per day during the early post-partum period to encourage additional feed ingestion by the cows. Leftover rations from the previous day's feeding were collected and weighed from each feeding trough during the early post-partum period, prior to feeding the test cows on a subsequent day. The cows of the different trials received a sufficient amount of the first post-partum feed to ensure at least about ten weight percent of the first post-partum feeds of the different trials remained in the feeding troughs of each trial each day of the early post-partum period, based on the amount of the different first post-partum feeds of the different trials provided at the beginning of each day. Feed refusals were measured daily during the early post-partum period, and water was supplied ad libitum. […] Thereafter, the second post-partum control feed were lightly stirred, separately and individually, in front of the cows of the different trials three times per day during the weeks +5 through +8 to encourage additional feed ingestion by the cows. Leftover rations from the previous day's feeding were collected and weighed from each feeding trough during weeks +5 through +8, prior to feeding the test cows on a subsequent day. […]

OC[C@@H](O)[C@@H](O)[C@H](O)[C@@H](O)CO [sorbitol]
Dry Matter Feed Intake (Pre/Post Trial #1 (150/125/100 g/day in wk −3..−1/+1..+4/+5..+8), multiparious cows, week +7, two-trial comparison with Control Trial #2 (Table 22)): 54.9 lbs/day | Dry Matter Intake (Pre/Post Trial #1 (150/125/100 g/day in wk −3..−1/+1..+4/+5..+8), multiparious cows, week +8): 57.1 lbs/day | Dry Matter Feed Intake (Pre/Post Trial #1 (150/125/100 g/day in wk −3..−1/+1..+4/+5..+8), multiparious cows, week +8, two-trial comparison with Control Trial #2 (Table 22)): 57.4 lbs/day | Dry Matter Intake (Pre/Post Trial #1 (150/125/100 g/day in wk −3..−1/+1..+4/+5..+8), multiparious cows, week −1): 33.3 lbs/day | Dry Matter Feed Intake (Pre/Post Trial #1 (150/125/100 g/day in wk −3..−1/+1..+4/+5..+8), multiparious cows, week −1, two-trial comparison with Control Trial #2 (Table 22)): 33.4 lbs/day | Dry Matter Intake (Pre/Post Trial #1 (150/125/100 g/day in wk −3..−1/+1..+4/+5..+8), multiparious cows, week −2): 34.6 lbs/day | Dry Matter Feed Intake (Pre/Post Trial #1 (150/125/100 g/day in wk −3..−1/+1..+4/+5..+8), multiparious cows, week −2, two-trial comparison with Control Trial #2 (Table 22)): 35.2 lbs/day | Change in Dry Matter Feed Intake (Pre/Post Trial #1 (150/125/100 g/day in wk −3..−1/+1..+4/+5..+8), multiparious cows, week −2 versus −1): −1.39 lbs/day | Change in Dry Matter Feed Intake (Pre/Post Trial #1 (150/125/100 g/day in wk −3..−1/+1..+4/+5..+8), multiparious cows, week −2 versus −1, two-trial comparison with Control Trial #2 (Table 22)): −1.83 lbs/day | Dry Matter Intake (Pre/Post Trial #1 (150/125/100 g/day in wk −3..−1/+1..+4/+5..+8), multiparious cows, week −3): 29.6 lbs/day | Dry Matter Feed Intake (Pre/Post Trial #1 (150/125/100 g/day in wk −3..−1/+1..+4/+5..+8), multiparious cows, week −3, two-trial comparison with Control Trial #2 (Table 22)): 30.7 lbs/day | Dry Matter Intake (Pre/Post Trial #1 (150/125/100 g/day in wk −3..−1/+1..+4/+5..+8), multiparious cows, weeks +1 through +4): 45.4 lbs/day | Dry Matter Feed Intake (Pre/Post Trial #1 (150/125/100 g/day in wk −3..−1/+1..+4/+5..+8), multiparious cows, weeks +1 through +4, two-trial comparison with Control Trial #2 (Table 22)): 45.7 lbs/day | Dry Matter Intake (Pre/Post Trial #1 (150/125/100 g/day in wk −3..−1/+1..+4/+5..+8), multiparious cows, weeks +1 through +8): 50.1 lbs/day | Dry Matter Feed Intake (Pre/Post Trial #1 (150/125/100 g/day in wk −3..−1/+1..+4/+5..+8), multiparious cows, weeks +1 through +8, two-trial comparison with Control Trial #2 (Table 22)): 50.4 lbs/day | Dry Matter Intake (Pre/Post Trial #1 (150/125/100 g/day in wk −3..−1/+1..+4/+5..+8), multiparious cows, weeks +5 through +8): 54.9 lbs/day | Dry Matter Feed Intake (Pre/Post Trial #1 (150/125/100 g/day in wk −3..−1/+1..+4/+5..+8), multiparious cows, weeks +5 through +8, two-trial comparison with Control Trial #2 (Table 22)): 55.3 lbs/day | Dry Matter Intake (Pre/Post Trial #1 (150/125/100 g/day in wk −3..−1/+1..+4/+5..+8), multiparious cows, weeks −3 through −1): 32.6 lbs/day | Dry Matter Feed Intake (Pre/Post Trial #1 (150/125/100 g/day in wk −3..−1/+1..+4/+5..+8), multiparious cows, weeks −3 through −1, two-trial comparison with Control Trial #2 (Table 22)): 33.0 lbs/day | greater increase of dry matter feed intake (Pre/Post Trial #1 (150/125/100 g/day) compared to Control Trial #2, multiparous cows, week −1 before calving versus week +1 after calving): 3.19 pounds per day | greater daily rate of dry matter feed intake (Pre/Post Trial #1 (150/125 g/day pre-/early post-partum) versus Pre/Post Trial #2 (75/75 g/day), multiparious cows, early post-partum period (weeks +1 through +4)): 7.6% | Dry Matter Intake (Pre/Post Trial #2 (75/75/100 g/day in wk −3..−1/+1..+4/+5..+8), multiparious cows, week +1): 33.1 lbs/day | Change in Dry Matter Feed Intake (Pre/Post Trial #2 (75/75/100 g/day in wk −3..−1/+1..+4/+5..+8), multiparious cows, week +1 versus −1): 0.72 lbs/day | Dry Matter Intake (Pre/Post Trial #2 (75/75/100 g/day in wk −3..−1/+1..+4/+5..+8), multiparious cows, week +2): 41.2 lbs/day | Dry Matter Intake (Pre/Post Trial #2 (75/75/100 g/day in wk −3..−1/+1..+4/+5..+8), multiparious cows, week +3): 45.3 lbs/day | Dry Matter Intake (Pre/Post Trial #2 (75/75/100 g/day in wk −3..−1/+1..+4/+5..+8), multiparious cows, week +4): 49.8 lbs/day | Dry Matter Intake (Pre/Post Trial #2 (75/75/100 g/day in wk −3..−1/+1..+4/+5..+8), multiparious cows, week +5): 53.6 lbs/day | Dry Matter Intake (Pre/Post Trial #2 (75/75/100 g/day in wk −3..−1/+1..+4/+5..+8), multiparious cows, week +6): 54.2 lbs/day | Dry Matter Intake (Pre/Post Trial #2 (75/75/100 g/day in wk −3..−1/+1..+4/+5..+8), multiparious cows, week +7): 53.3 lbs/day | Dry Matter Intake (Pre/Post Trial #2 (75/75/100 g/day in wk −3..−1/+1..+4/+5..+8), multiparious cows, week +8): 55.0 lbs/day | Dry Matter Intake (Pre/Post Trial #2 (75/75/100 g/day in wk −3..−1/+1..+4/+5..+8), multiparious cows, week −1): 32.3 lbs/day | Dry Matter Intake (Pre/Post Trial #2 (75/75/100 g/day in wk −3..−1/+1..+4/+5..+8), multiparious cows, week −2): 36.3 lbs/day | Change in Dry Matter Feed Intake (Pre/Post Trial #2 (75/75/100 g/day in wk −3..−1/+1..+4/+5..+8), multiparious cows, week −2 versus −1): −3.91 lbs/day | Dry Matter Intake (Pre/Post Trial #2 (75/75/100 g/day in wk −3..−1/+1..+4/+5..+8), multiparious cows, week −3): 31.9 lbs/day | Dry Matter Intake (Pre/Post Trial #2 (75/75/100 g/day in wk −3..−1/+1..+4/+5..+8), multiparious cows, weeks +1 through +4): 42.2 lbs/day | Dry Matter Intake (Pre/Post Trial #2 (75/75/100 g/day in wk −3..−1/+1..+4/+5..+8), multiparious cows, weeks +1 through +8): 48.2 lbs/day | Dry Matter Intake (Pre/Post Trial #2 (75/75/100 g/day in wk −3..−1/+1..+4/+5..+8), multiparious cows, weeks +5 through +8): 54.1 lbs/day | Dry Matter Intake (Pre/Post Trial #2 (75/75/100 g/day in wk −3..−1/+1..+4/+5..+8), multiparious cows, weeks −3 through −1): 33.2 lbs/day | decrease in dry matter feed intake (average of means of Pre-Partum Trial #2, Pre/Post Trial #1 and Pre/Post Trial #2 versus Control Trial #2, multiparious cows, pre-partum period (weeks −3 through −1)): 4.9%
